Experimental data published in ChEMBL document CHEMBL1201862, “PubChem BioAssay data set” (2004).
Calls of active or inactive are those of the source. Rule as the data show it: actives have a measured IC50 and inactives only a lower limit.

Biological target: Envelope glycoprotein gp160 (Human immunodeficiency virus 1, UniProt Q6QLK5)
Assay: inhibitors of HIV fusion peptide binding, primary screen, biochemical, uHTS, fluorescence dequenching (AID 1986)

Sequence of Envelope glycoprotein gp160 (Q6QLK5 whole entry, the tested form may be a part): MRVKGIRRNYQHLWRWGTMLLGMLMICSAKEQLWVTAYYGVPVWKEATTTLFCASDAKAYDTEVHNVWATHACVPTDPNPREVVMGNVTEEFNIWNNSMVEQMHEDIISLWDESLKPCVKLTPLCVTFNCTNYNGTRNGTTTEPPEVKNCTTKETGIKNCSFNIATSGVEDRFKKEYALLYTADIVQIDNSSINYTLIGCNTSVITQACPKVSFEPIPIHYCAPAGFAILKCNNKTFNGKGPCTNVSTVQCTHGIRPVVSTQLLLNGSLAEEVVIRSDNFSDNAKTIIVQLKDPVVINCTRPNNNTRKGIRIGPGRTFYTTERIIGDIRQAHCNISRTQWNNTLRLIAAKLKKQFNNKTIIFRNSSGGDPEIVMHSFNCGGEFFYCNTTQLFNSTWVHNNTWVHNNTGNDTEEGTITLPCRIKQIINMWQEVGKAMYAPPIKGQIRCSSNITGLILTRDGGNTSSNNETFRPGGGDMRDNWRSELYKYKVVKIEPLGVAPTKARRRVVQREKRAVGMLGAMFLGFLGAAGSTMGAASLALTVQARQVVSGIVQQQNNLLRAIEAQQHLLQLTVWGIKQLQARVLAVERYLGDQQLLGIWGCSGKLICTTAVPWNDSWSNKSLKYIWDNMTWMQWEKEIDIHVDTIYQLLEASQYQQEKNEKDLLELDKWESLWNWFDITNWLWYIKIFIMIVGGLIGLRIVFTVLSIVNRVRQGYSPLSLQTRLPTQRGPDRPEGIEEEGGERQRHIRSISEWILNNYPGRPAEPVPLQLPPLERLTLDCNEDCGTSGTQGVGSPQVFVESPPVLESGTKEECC

N#Cc1c(SCC(=O)Nc2nc3ccc(Br)cc3s2)sc2c(O)cc(=O)[nH]c12
IC50: 11 µM (active)

O=C(O)c1cc(-c2ccc(/C=N/Nc3ccc(Cl)cc3)o2)ccc1Cl
IC50: 24.1 µM (active)

COc1cccc(OCCOc2ccc(/C=C3\C(=N)N4N=C(S(C)(=O)=O)SC4=NC3=O)cc2OC)c1
IC50: 43.8 µM (active)

O=C(CCN1C(=O)/C(=C/c2cccs2)SC1=S)Nc1ccc(C(=O)O)c(O)c1
IC50: 11.6 µM (active)

Cc1oc2c(cc(NS(=O)(=O)c3ccc(C(C)C)cc3)c3ccccc32)c1C(=O)O
IC50: 14.8 µM (active)
